# BindingDB's records for doi:10.7270/Q2PZ576Z (The Scripps Research Institute Molecular Screening Center, 2007)
# Molecular target: Sphingosine 1-phosphate receptor 3 (Homo sapiens, UniProt Q99500)
# Experiment: S1P3 receptor activation, EC50 – cell-based, NFAT-BLA reporter, dose response (AID 439)
# Conditions: not given
# Chain of Sphingosine 1-phosphate receptor 3 (Q99500 whole entry): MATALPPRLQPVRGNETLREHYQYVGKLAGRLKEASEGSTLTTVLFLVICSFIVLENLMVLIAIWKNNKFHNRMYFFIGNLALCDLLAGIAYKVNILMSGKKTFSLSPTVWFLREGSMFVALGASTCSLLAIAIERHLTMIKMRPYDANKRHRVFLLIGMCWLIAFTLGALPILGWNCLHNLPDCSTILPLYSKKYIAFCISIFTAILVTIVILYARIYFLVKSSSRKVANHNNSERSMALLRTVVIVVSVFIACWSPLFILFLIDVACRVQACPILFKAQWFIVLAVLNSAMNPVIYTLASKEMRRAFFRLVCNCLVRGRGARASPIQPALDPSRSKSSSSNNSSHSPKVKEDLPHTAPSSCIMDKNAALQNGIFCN
row,EC50,Compound
1,25.6 µM,Cc1cc(C(=O)N(C2CCCCC2)C2CCCCC2)no1 [MLS000087301]
2,> 45 µM,O=C(Cc1cccs1)NCc1cn2ccccc2n1 [MLS000103862]
3,2.7 µM,CCCc1cc(C(=O)N(C2CCCCC2)C2CCCCC2)no1 [MLS000116372]
4,> 45 µM,"Cc1ccc(-n2c(=O)[nH]cc(C(=O)Nc3ccc4c(c3)OCCO4)c2=O)cc1C [N-(2,3-dihydro-1,4-benzodioxin-6-yl)-3-(3,4-dimethylphenyl)-2,4-bis(oxidanylidene)-1H-pyrimidine-5-carboxamide]"
5,> 45 µM,C=CCn1c(=O)c(C#N)cc2c(=O)n3ccccc3nc21 [SMR000029848]
6,6.69 µM,Cc1cc(C)n(-c2nc(NCCO)c3c4c(sc3n2)CCCC4)n1 [SMR000046729]
7,> 45 µM,Cc1ccc2nc3c(cc(C#N)c(=O)n3-c3nccs3)c(=O)n2c1 [SMR000047276]
8,7.18 µM,CCOC(=O)c1cc2ccc(OC(=O)c3ccco3)cc2oc1=O [ethyl 7-(2-furoyloxy)-2-oxo-2H-chromene-3-carboxylate]

# Same assay, conditions: inactive by the depositor's call
row,EC50,Compound
1,127 µM,Cc1cccc2cc3c(NC(=O)c4ccccn4)nn(C)c3nc12 [MLS000082760]
2,80.8 µM,"Cc1ccc(NC(=O)CC2Nc3ccccc3NC2=O)cc1Cl (stereo not given) [N-(3-chloranyl-4-methyl-phenyl)-2-(3-oxidanylidene-2,4-dihydro-1H-quinoxalin-2-yl)ethanamide]"
3,19.3 µM,"CCC(C)c1ccc2oc(-c3ccc(NC(=O)c4nnc[nH]4)cc3)nc2c1 (stereo not given) [N-[4-(5-sec-butyl-1,3-benzoxazol-2-yl)phenyl]-1H-1,2,4-triazole-3-carboxamide]"
4,29.7 µM,CC(C)Cn1c(N)c(C(=O)NCc2cccs2)c2nc3ccccc3nc21 [SMR000043082]
5,63.9 µM,N=c1c(C(=O)NCc2ccco2)cc2c(=O)n3ccccc3nc2n1Cc1ccc(Cl)cc1 [SMR000047818]
6,30.8 µM,"Cc1onc(-c2c(Cl)cccc2Cl)c1C(=O)N1CCc2ccccc21 [[3-(2,6-dichlorophenyl)-5-methyl-1,2-oxazol-4-yl]-(2,3-dihydroindol-1-yl)methanone]"

row,Compound,EC50
1,Nc1c(C(=O)NC2CCCC2)c2nc3ccccc3nc2n1CC1CCCO1 (stereo not given) [MLS000080255],14.7 µM
